The results in this text go back to ChEMBL document CHEMBL3774380, “Development of Noviomimetics as C-Terminal Hsp90 Inhibitors” (ACS Med Chem Lett, 2016).

Activity calls are given as the source filed them. The rule behind the calls is not given here.

For assay [1], the species on record is Rattus norvegicus. Nature of the assay: Inhibition of Hsp90 in rat 50B11 cells expressing human HSPA1A gene assessed as increase in Hsp70 level at 10 to 1000 nM after 16 hrs by luciferase reporter assay. It counts as cell-based. (In a reporter assay the amount or activity of a reporter protein is the signal.)
For assay [2], the species on record is Rattus norvegicus. Nature of the assay: Inhibition of Hsp90 in rat 50B11 cells assessed as increase in Hsp70 level at 0.5 to 1000 nM after 24 hrs by Western blot method. It counts as cell-based.

Regarding `CC(=O)NCCc1ccc(O[C@@H]2CC[C@@H](OCc3ccccc3)C2)cc1-c1cccc(F)c1`, the inhibition entry in assay [1] is “inactive”.
For `CC(=O)NCCc1ccc(O[C@H]2CC[C@@H](OCc3ccccc3)C2)cc1-c1cccc(F)c1`, the inhibition result in assay [1] was “inactive”.
`CO[C@@H]1[C@@H](O)[C@@H](O)[C@H](Oc2ccc(CCNC(C)=O)c(-c3cccc(F)c3)c2)OC1(C)C`: in assay [2], the inhibition entry is “Active”.
`CC(=O)NCCc1ccc(OC2CCC(O)CC2)cc1-c1cccc(F)c1` (mixture of isomers): the inhibition result in assay [1] is “Active”.
`CC(=O)NCCc1ccc(OC2CCC(OCc3ccccc3)CC2)cc1-c1cccc(F)c1` (mixture of isomers): the inhibition result in assay [1] and in assay [2] was “Active” each time.
Turning to `CC(=O)NCCc1ccc(OC2CCCC(O)C2)cc1-c1cccc(F)c1` (mixture of isomers), the inhibition result in assay [1] was “Active”.
The same measure, in the same setting: with `CC(=O)NCCc1ccc(OC2CCCC(OCc3ccccc3)C2)cc1-c1cccc(F)c1` (mixture of isomers) the entry was “Active”; with `CC(=O)NCCc1ccc(OC2C[C@H](O)CO2)cc1-c1cccc(F)c1` (mixture of isomers), “inactive”; with `CC(=O)NCCc1ccc(OC2OCCC2O)cc1-c1cccc(F)c1` (mixture of isomers), “inactive”.
Still for that read-out and setting: next, `CC(=O)NCCc1ccc(OC2OC[C@@H](O)[C@H]2O)cc1-c1cccc(F)c1` (mixture of isomers): “inactive”.
The same measure, in the same setting: next, `CC(=O)NCCc1ccc(OC2C=CCC(C)(C)C2)cc1-c1cccc(F)c1` (racemic): “inactive”.
In the case of `CC(=O)NCCc1ccc(OC2C=CCCC2)cc1-c1cccc(F)c1` (racemic), the inhibition entry in assay [1] is “inactive”.
